Laboratory results as given in ChEMBL document CHEMBL1133842, “Identification of a series of PPAR gamma/delta dual agonists via solid-phase parallel synthesis” (Bioorg Med Chem Lett, 2001).

How the values were obtained:
[1] = target: T1, Peroxisome proliferator-activated receptor alpha (Mus musculus, UniProt P23204); experiment: Agonist activity against PPAR alpha; assay type: functional
T1 sequence (P23204 whole entry): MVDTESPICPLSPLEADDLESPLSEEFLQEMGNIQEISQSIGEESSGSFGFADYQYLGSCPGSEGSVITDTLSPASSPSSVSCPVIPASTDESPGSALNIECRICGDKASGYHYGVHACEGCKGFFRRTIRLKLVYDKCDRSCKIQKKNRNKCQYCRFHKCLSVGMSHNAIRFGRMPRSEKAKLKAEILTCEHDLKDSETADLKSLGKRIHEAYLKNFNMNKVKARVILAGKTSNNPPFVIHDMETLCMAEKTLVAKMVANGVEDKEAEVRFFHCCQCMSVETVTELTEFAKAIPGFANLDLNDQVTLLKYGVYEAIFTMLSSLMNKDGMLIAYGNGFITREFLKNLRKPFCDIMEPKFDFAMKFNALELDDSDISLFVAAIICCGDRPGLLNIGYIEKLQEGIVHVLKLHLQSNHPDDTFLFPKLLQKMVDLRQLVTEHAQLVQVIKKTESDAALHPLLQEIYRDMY

[2] = target: T2, Peroxisome proliferator-activated receptor gamma (Mus musculus, UniProt P37238); experiment: Agonist activity against PPAR gamma; assay type: functional
T2 sequence (P37238 whole entry): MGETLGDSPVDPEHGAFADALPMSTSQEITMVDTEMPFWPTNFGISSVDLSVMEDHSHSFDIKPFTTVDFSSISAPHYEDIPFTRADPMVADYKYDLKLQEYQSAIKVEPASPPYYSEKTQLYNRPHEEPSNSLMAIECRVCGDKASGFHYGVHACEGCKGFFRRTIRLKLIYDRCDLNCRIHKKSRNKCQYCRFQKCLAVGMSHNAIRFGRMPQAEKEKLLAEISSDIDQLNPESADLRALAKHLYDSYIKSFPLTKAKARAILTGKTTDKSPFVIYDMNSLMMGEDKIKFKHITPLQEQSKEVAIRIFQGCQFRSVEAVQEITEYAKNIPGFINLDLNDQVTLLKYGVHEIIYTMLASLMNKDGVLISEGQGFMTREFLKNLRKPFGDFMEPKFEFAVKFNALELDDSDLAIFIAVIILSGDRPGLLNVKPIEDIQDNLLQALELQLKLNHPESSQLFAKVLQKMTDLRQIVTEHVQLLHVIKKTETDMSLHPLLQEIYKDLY

[3] = target: T3, Peroxisome proliferator-activated receptor delta (Mus musculus, UniProt P35396); experiment: Agonist activity against PPAR delta; assay type: functional
T3 sequence (P35396 whole entry): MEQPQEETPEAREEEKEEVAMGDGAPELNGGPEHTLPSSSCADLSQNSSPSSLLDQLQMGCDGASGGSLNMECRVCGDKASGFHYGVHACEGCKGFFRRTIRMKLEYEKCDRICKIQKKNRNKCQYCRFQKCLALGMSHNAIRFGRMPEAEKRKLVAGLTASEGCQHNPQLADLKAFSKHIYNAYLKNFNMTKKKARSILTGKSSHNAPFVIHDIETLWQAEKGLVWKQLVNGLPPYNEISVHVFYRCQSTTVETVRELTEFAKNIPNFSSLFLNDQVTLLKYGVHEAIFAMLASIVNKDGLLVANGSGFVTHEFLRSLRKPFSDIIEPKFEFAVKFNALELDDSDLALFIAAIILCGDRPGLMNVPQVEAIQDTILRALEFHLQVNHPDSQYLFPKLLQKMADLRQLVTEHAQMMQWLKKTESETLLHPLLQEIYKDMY

[4] = target: T4, Peroxisome proliferator-activated receptor gamma (Homo sapiens, UniProt P37231); experiment: Agonistic transcriptional activity in CV-1 cells expressing Gal4-PPAR gamma chimera; assay type: functional, cell-based
T4 sequence (P37231 whole entry): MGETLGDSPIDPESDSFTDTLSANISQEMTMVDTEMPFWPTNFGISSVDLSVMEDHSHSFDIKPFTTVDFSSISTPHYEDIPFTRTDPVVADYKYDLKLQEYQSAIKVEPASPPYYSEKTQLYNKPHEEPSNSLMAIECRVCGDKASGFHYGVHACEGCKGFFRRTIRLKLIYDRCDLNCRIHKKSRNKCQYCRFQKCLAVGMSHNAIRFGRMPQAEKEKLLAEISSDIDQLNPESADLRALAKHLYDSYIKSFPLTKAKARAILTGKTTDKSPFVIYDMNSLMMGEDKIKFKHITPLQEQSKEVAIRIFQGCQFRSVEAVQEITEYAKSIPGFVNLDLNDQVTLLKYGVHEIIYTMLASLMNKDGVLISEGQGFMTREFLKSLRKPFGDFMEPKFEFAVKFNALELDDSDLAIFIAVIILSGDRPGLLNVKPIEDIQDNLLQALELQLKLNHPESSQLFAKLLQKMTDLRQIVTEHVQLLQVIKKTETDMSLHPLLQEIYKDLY

[5] = target: T5, Peroxisome proliferator-activated receptor delta (Homo sapiens, UniProt Q03181); experiment: Agonistic transcriptional activity in CV-1 cells expressing Gal4-PPAR delta chimera; assay type: functional, cell-based
T5 sequence (Q03181 whole entry): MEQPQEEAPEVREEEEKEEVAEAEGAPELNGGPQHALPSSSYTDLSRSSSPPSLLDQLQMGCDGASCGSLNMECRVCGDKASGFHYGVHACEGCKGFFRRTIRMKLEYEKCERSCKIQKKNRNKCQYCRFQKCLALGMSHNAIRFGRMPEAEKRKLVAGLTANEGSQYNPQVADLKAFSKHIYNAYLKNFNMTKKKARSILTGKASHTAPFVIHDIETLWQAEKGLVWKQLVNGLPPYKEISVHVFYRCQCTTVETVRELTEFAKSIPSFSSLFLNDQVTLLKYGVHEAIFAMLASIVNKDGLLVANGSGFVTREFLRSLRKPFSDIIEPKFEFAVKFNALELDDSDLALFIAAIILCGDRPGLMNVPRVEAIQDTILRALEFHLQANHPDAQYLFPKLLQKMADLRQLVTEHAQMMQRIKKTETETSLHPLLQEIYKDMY

[6] = target: T6, Peroxisome proliferator-activated receptor alpha (Homo sapiens, UniProt Q07869); experiment: Agonistic transcriptional activity in CV-1 cells expressing Gal4-PPAR alpha chimera; assay type: functional, cell-based
T6 sequence (Q07869 whole entry): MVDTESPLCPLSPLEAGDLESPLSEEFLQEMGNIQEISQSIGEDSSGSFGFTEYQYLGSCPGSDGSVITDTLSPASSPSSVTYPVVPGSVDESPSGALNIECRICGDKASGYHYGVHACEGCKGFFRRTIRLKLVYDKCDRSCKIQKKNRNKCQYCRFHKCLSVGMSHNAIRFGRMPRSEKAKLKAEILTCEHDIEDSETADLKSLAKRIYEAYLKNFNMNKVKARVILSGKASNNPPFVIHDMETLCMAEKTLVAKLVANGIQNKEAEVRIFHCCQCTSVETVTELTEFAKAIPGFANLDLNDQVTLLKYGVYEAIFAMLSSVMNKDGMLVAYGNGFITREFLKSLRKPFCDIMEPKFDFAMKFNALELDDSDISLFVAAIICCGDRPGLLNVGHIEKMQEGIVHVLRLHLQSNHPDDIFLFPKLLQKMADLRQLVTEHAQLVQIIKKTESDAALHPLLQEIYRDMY

Rattus norvegicus [7] = experiment: In vivo increase in HDL-c in ZDF rats at 30 mg/kg bid dose after 7 day administration; assay type: functional
Rattus norvegicus [8] = experiment: In vivo percent reduction in plasma glucose in ZDF rats at 30 mg/kg bid dose after 7 day administration; assay type: functional
Rattus norvegicus [9] = experiment: In vivo percent reduction in serum triglycerides in ZDF rats at 30 mg/kg bid dose after 7 day administration; assay type: functional
[10] = Mean plasma concentration at a oral dose of 3 mg/kg in rat at 0.5 hr; assay type: ADME, organism-based; parameters: dose 3 mg/kg, route oral
[11] = Mean plasma concentration at a oral dose of 3 mg/kg in rat at 1.0 hr; assay type: ADME, organism-based; parameters: dose 3 mg/kg, route oral
[12] = Mean plasma concentration at a oral dose of 3 mg/kg in rat at 2.0 hr; assay type: ADME, organism-based; parameters: dose 3 mg/kg, route oral

Structure (SMILES) | EC50 [1] [nM] | EC50 [2] [nM] | EC50 [3] [nM] | EC50 [4] [nM] | EC50 [5] [nM] | EC50 [6] [nM] | Reduction (Rattus norvegicus [7]) [%] | Reduction (Rattus norvegicus [8]) [%] | Reduction (Rattus norvegicus [9]) [%] | concentration at 0.5 h [10] [ng/mL] | concentration at 1 h [11] [ng/mL] | concentration at 2 h [12] [ng/mL]
CC(C)(Oc1cccc(CCCN(Cc2ccc(C(F)(F)F)cc2C(F)(F)F)C(=O)Cc2ccc(C(F)(F)F)cc2)c1)C(=O)O | > 1000 | 28 | 19 | 4 | 19 | 620 | 24 | 47 | 51 | 373 | 722 | 524
CC(C)(Oc1cccc(CCCN(Cc2ccc(C(F)(F)F)cc2C(F)(F)F)C(=O)COc2ccc(Cl)c(Cl)c2)c1)C(=O)O | – | – | – | 30 | 93 | 710 | – | – | – | – | – | –
CCOC(=O)c1ccc(NC(=O)N(CCCc2cccc(OC(C)(C)C(=O)O)c2)Cc2ccc(C(F)(F)F)cc2C(F)(F)F)cc1 | – | – | – | 0.5 | 160 | 230 | – | – | – | – | – | –
